Patent US20080153791A1, “11Beta -Hydroxysteroid Dehydrogenases” (onpharm GmbH, priority 2005, published 2008)
Where two headings read alike, the source gives them in different places. One block for each compound: values may come before it.

What was measured:
human 11β-HSD1 [1] = target: T1, human 11β-HSD1 (Homo sapiens, UniProt P28845); assay: 11β-HSD1 reductase activity (cortisone to cortisol) in lysates of stably transfected HEK-293 cells; type: biochemical; details: read-out: 11β-HSD1 % of control
T1 construct: expressed in transfected cells
T1 sequence (P28845 whole entry): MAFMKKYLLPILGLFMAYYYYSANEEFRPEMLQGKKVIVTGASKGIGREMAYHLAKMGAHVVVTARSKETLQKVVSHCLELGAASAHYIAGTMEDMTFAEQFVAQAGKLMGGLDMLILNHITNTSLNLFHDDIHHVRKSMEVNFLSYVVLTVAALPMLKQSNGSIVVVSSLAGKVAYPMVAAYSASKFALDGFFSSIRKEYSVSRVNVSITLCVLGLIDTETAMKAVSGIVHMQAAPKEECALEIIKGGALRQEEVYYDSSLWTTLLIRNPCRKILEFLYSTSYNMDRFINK

17β-HSD2 = target: T2, 17β-HSD2 (Homo sapiens, UniProt P37059); assay: Inhibition of 17β-HSD2; type: biochemical
T2 sequence (P37059 1-387): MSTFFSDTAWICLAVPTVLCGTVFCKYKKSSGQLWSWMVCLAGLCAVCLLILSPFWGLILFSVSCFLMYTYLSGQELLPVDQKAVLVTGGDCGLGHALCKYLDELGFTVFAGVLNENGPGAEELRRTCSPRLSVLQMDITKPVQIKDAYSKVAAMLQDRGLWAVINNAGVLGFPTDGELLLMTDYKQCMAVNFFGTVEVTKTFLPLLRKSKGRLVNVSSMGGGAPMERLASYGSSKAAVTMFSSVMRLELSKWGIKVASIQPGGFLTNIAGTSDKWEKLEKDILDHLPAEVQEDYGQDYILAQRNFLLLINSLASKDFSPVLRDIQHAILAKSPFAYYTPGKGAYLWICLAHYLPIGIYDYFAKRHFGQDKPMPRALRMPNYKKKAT

human 11β-HSD1 [2] = target: T1, human 11β-HSD1; assay: 11β-HSD1 activity in intact transfected HEK-293 cells; type: cell-based
Method: (§1) Human 11β-HSD1 and 11β-HSD2 activities were assessed in intact stably transfected HEK-293 cells. Per well of a 96-well plate 30,000 cells were seeded, followed by growth for 24 h in steroid-free DMEM medium. The total volume was 30 μl and contained 100 nM of radiolabeled cortisol or cortisone as substrate and the corresponding inhibitor at a final concentration between 0-200 μM. The reaction was performed in steroid-free medium in the absence of exogenous cofactor for 1 to 3 h at 37° C. The solvent was below 0.1% (DMSO). Reactions were stopped by adding unlabeled cortisol and cortisone dissolved in methanol (2 mM final). Steroids were separated by TLC and conversion determined by scintillation counting.
(§2) Enzyme kinetics were analyzed by non-linear regression using Data Analysis Toolbox (MDL Information Systems Inc.) assuming first-order rate kinetics. Data represent mean ±SD of four to five independent experiments.

human 11β-HSD2 [3] = target: T3, human 11β-HSD2 (Homo sapiens, UniProt P80365); assay: 11β-HSD2 activity in intact transfected HEK-293 cells; type: cell-based; details: read-out: IC50 for 11β-HSD2 (determined in intact transfected HEK-293 cells)
T3 construct: expressed in transfected cells
T3 sequence (P80365 1-405): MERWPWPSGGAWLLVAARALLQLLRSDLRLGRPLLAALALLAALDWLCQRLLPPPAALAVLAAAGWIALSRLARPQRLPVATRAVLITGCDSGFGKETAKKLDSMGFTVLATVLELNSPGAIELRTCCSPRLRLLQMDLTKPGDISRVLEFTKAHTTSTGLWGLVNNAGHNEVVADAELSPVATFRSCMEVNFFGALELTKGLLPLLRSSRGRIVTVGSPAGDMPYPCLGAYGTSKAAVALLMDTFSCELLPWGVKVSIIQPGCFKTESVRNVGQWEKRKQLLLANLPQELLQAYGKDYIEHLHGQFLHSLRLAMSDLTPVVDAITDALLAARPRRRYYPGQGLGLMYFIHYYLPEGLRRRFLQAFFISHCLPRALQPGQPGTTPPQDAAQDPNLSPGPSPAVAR
Method: as §1, §2

human 11β-HSD2 [4] = target: T3, human 11β-HSD2; assay: 11β-HSD2 oxidase activity (cortisol to cortisone) in lysates of stably transfected HEK-293 cells; type: biochemical; details: for remaining activity at 20 µM: 20 μM compound, 25 nM cortisol, HEK-293 cell lysates, read-out: 11β-HSD2 % of control; for IC50: cell lysates, 7 inhibitor concentrations at factor 2 intervals
Method: (§3) Cells were grown in 10 cm dishes to 80% confluence and incubated for 16 h in steroid-free medium (charcoal-treated fetal calf serum (FCS) from HyClone, Logan, Utah). Cells were rinsed once with phosphate-buffered saline (PBS), detached and centrifuged for 3 min at 150×g. The supernatant was removed and the cell pellet quick-frozen in a dry-ice ethanol bath. At the day of experiment, cell pellets were resuspended in buffer TS2 (100 mM NaCl, 1 mM EGTA, 1 mM EDTA, 1 mM MgCl2, 250 mM sucrose, 20 mM Tris-HCl, pH 7.4), sonicated and activities determined immediately. The rate of conversion of cortisol to cortisone or the reverse reaction was determined in 96-well optical PCR reaction plates (Applied Biosystems, Foster City, Calif.) in a final volume of 22 μl, and the tubes were capped during the reaction to avoid evaporation.
Reactions were initiated by simultaneously adding 10 μl of cell lysate and 12 μl of TS2 buffer containing the appropriate concentration of the inhibitory compound to be tested, NAD^+, 30 nCi of [1,2,6,7-^3H]-cortisol and unlabeled cortisol. […] Stock solutions of the inhibitors in methanol or DMSO were diluted in TS2 buffer to yield the appropriate concentrations, whereby the concentration of methanol or DMSO in the reactions were kept below 0.1%. Control reactions with or without 0.1% of the solvent were performed. Incubation was at 37° C. for 10 min with shaking, reactions were terminated by adding 10 μl of stop solution containing 2 mM of unlabeled cortisol and cortisone dissolved in methanol. The conversion of radiolabeled cortisol was determined by separation of cortisol and cortisone using TLC and a solvent system of 9:1 (v/v) chloroform:methanol, followed by scintillation counting.
as §2
(§4) Assay with 20 μM of the corresponding compound in the reaction mixture, added simultaneously with the substrate:
(§5) Determination of IC50 values, using 7 different inhibitor concentrations at factor 2 intervals: […]

17β-HSD1 = target: T4, 17β-HSD1 (Homo sapiens, UniProt P14061); assay: Inhibition of 17β-HSD1; type: biochemical
T4 sequence (P14061 1-328): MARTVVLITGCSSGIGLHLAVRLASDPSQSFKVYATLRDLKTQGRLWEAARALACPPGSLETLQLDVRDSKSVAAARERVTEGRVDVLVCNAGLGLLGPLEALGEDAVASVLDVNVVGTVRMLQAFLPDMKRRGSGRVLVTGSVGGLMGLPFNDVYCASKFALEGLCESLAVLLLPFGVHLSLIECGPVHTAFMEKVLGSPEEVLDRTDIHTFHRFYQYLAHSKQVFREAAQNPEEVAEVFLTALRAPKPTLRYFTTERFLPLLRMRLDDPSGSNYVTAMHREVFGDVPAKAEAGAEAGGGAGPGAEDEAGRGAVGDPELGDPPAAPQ

human 11β-HSD1 [5] = target: T1, human 11β-HSD1; assay: 11β-HSD1 reductase activity (cortisone to cortisol) in lysates of stably transfected HEK-293 cells; type: biochemical; details: for remaining activity at 20 µM: 20 μM compound, 100 nM cortisone, HEK-293 cell lysates, read-out: 11β-HSD1 % of control
Method: as §3
Reactions were initiated simultaneously by adding 10 μl of cell lysate and 12 μl of TS2 buffer containing the appropriate concentration of the inhibitory compound to be tested, NADPH, 30 nCi of [1,2,6,7-^3H]-cortisone and unlabeled cortisone, whereby final concentrations were 400 μM NADPH and 100 nM cortisone. Activities were determined immediately after cell disruption by measuring the conversion of radiolabeled cortisone to cortisol for 10 min.
as §2, §4, §5

- remaining activity at 10 µM (human 11β-HSD1 [1]): 4.4%
Compound: CC1(C)[C@@H](OC(=O)CCC(=O)O)CC[C@]2(C)[C@H]3C(=O)C=C4[C@@H]5C[C@@](C)(C(=O)O)CC[C@]5(C)CC[C@@]4(C)[C@]3(C)CC[C@@H]12 [CBX, carbenoxolone]

Compound: CC(=O)OC1CC[C@]2(C)C3=C(C(=O)C[C@H]2C1(C)C)[C@]1(C)CCC(C(C)CCC(=O)O)[C@@]1(C)CC3=O (stereo partly drawn) [BNW16, 4-((5R,10S,13R,14R)-3-Acetoxy-4,4,10,13,14-pentamethyl-7,11-dioxo-2,3,4,5,6,7,10,11,12,13,14,15,16,17-tetradecahydro-1H-cyclopenta[a]phenanthren-17-yl)-pentanoic acid]
- IC50 (17β-HSD2): 28300 ± 5500 nM
- inhibition of 17β-HSD2 (in words) (17β-HSD2): no inhibition
- IC50 (human 11β-HSD1 [2]): 2320 ± 330 nM
- IC50 (human 11β-HSD1 [2]; text b14, read-out: IC50 for 11β-HSD1 determined in intact transfected HEK-293 cells): 410 ± 80 nM
- IC50 (human 11β-HSD2 [3]): > 50000 nM
- inhibition of 11β-HSD2 (in words) (human 11β-HSD2 [4]): no inhibition
- remaining activity at 20 µM (human 11β-HSD2 [4]): 27.4%
- IC50 (human 11β-HSD2 [4]; experiment 2, read-out: IC 50 11β-HSD2, determination 2): 4040 nM
- IC50 (human 11β-HSD2 [4]; experiment 3, read-out: IC 50 11β-HSD2, determination 3): 3870 nM
- IC50 (17β-HSD1): > 30000 nM
- inhibition of 17β-HSD1 (in words) (17β-HSD1): no inhibition
- remaining activity at 20 µM (human 11β-HSD1 [5]): 2.7%
- IC50 (human 11β-HSD1 [5]; IC 50 11β-HSD1, determination 1): 149 nM
- IC50 (human 11β-HSD1 [5]; IC 50 11β-HSD1, determination 2): 168 nM
- IC50 (human 11β-HSD1 [5]; IC 50 11β-HSD1, determination 3): 114 nM

- inhibition of 17β-HSD2 (in words) (17β-HSD2): did not inhibit
- inhibition of 17β-HSD2 (in words) (17β-HSD2; listed as 7): no inhibition
- IC50 (human 11β-HSD1 [2]; 11β-HSD1, intact HEK-293 cells, mean ± SD, read-out: IC50 in intact cells): 550 ± 50 nM
- inhibition of 11β-HSD2 (in words) (human 11β-HSD2 [4]): did not inhibit
- remaining activity at 20 µM (human 11β-HSD2 [4]): 140%
- inhibition of 11β-HSD2 (in words) (human 11β-HSD2 [4]; listed as 7): no inhibition
- inhibition of 17β-HSD1 (in words) (17β-HSD1): did not inhibit
- inhibition of 17β-HSD1 (in words) (17β-HSD1; listed as 7): no inhibition
- remaining activity at 20 µM (human 11β-HSD1 [5]): 9.6%
- IC50 (human 11β-HSD1 [5]; cell lysates, 7 inhibitor concentrations at factor 2 intervals, experiment 1, read-out: IC 50 11β-HSD1, determination 1): 1950 nM
- IC50 (human 11β-HSD1 [5]; cell lysates, 7 inhibitor concentrations at factor 2 intervals, experiment 2, read-out: IC 50 11β-HSD1, determination 2): 1910 nM
- IC50 (human 11β-HSD1 [5]; cell lysates, 7 inhibitor concentrations at factor 2 intervals, experiment 3, read-out: IC 50 11β-HSD1, determination 3): 2240 nM
Compound: COc1ccc(CCNC(=O)C23CCC(C)(C(=O)C2=O)C3(C)C)cc1OC (stereo not shown) [BNW7, 4,7,7-Trimethyl-2,3-dioxo-bicyclo[2.2.1]heptane-1-carboxylic acid [2-(3,4-dimethoxy-phenyl)-ethyl]-amide]
